Measured values from PMC8268740, “Evaluation of Firefly and Renilla Luciferase Inhibition in Reporter-Gene Assays: A Case of Isoflavonoids” (International Journal of Molecular Sciences, 2021).
Where “and” joins values, the source holds several entries; their conditions need not be identical. Identical values can stand only once. Entries after “also recorded” stand apart in the source; their conditions may differ. Like-named read-outs stand apart in the source and are kept apart here.

Legend:
isolated FLuc = details: cited from earlier work
[1] = molecular target: T1, firefly luciferase (FLuc) (Photinus pyralis, UniProt P08659); assay: Cell-lysate (AR-EcoScreen) in vitro firefly luciferase inhibition assay; type: biochemical; details: for IC50 / FLuc inhibition (result in words): AR-EcoScreen cell lysate; for inhibition at 10 µM / inhibition at 1 µM / inhibition at 100 µM: read-out: inhibition of FLuc; for FLuc inhibition (result in words): screened at 1, 10, 100 µM
T1 construct: host or cells: AR-EcoScreen (Chinese hamster ovary derived), lysate after dihydrotestosterone induction
T1 sequence (P08659 whole entry): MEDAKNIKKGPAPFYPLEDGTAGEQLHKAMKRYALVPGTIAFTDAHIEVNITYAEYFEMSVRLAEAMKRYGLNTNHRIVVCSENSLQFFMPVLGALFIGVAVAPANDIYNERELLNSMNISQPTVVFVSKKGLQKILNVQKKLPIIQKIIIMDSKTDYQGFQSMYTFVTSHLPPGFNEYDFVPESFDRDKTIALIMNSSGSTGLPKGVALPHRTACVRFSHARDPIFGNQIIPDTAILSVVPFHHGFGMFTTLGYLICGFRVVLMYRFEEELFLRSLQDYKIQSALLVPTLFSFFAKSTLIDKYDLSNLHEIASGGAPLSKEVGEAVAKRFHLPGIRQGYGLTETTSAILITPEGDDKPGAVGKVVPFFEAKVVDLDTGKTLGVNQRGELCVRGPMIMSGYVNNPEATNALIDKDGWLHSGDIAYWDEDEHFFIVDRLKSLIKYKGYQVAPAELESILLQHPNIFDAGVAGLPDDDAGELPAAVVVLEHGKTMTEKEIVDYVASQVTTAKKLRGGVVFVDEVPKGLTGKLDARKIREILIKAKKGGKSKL
Experimental: (§1) Preparation of cell lysates for use in the luciferase inhibition assays was through seeding of 4–7 ×10^6 cells into a 150 cm^2 growth flask (an equivalent surface density to that indicated in OECD TG 458 [10]) for 24 h at 37 °C under 5% CO2. Upon incubation, dihydrotestosterone (Sigma-Aldrich, St. Louis, MO, USA) diluted in DMSO was added at 10 nM final concentration. This was followed by another 24-h incubation, removal of medium, and addition of 9.4 mL reporter lysis buffer (Promega, Madison, WI, USA). The growth flask was then stored at −80 °C until use.
The cell lysate was thawed at room temperature. Stock solutions of the isoflavonoids and positive controls were dissolved in DMSO and 10-fold serially diluted in the cell lysate to the final concentration with 1% DMSO. Twenty microliters of each isoflavonoid in the cell lysate were transferred to 96-well plates in triplicate and incubated for 30 min at room temperature. Then, 30 µL Luciferase Assay Reagent II (contained in the Dual-Luciferase Reporter Assay System; Promega, Madison, WI, USA) was added to each well, and the FLuc luminescence was measured using a microplate reader (Synergy 4 hybrid; BioTek, Winooski, VT, USA). The addition of 30 µL of Stop & Glo Reagent (contained in the Dual-Luciferase Reporter Assay System) followed, and the RLuc luminescence was recorded using the microplate reader (Synergy 4 hybrid; BioTek, Winooski, VT, USA).
The data from the in vitro luciferase inhibition assays in the AR-EcoScreen cell lysate were processed by first subtracting the background value (i.e., reporter lysis buffer alone) and then normalization to the vehicle control (1% DMSO), and are expressed as means ± standard deviation of three independent repeats carried out as technical triplicates. […] Statistical significance as compared to the vehicle control, considered: *, p ≤ 0.05; **, p ≤ 0.01; and ****, p ≤ 0.0001, using one-way ANOVA, followed by post-hoc Dunnett’s tests.

RLuc = details: read-out: IC50 RLuc inhibition; in the presence of 10 µM coelenterazine; cited from earlier work
[2] = molecular target: T2, Renilla luciferase (RLuc) (Renilla reniformis, UniProt P27652); assay: Cell-lysate (AR-EcoScreen) in vitro Renilla luciferase inhibition assay; type: biochemical
T2 construct: host or cells: AR-EcoScreen (Chinese hamster ovary derived), lysate
T2 sequence (P27652 1-311): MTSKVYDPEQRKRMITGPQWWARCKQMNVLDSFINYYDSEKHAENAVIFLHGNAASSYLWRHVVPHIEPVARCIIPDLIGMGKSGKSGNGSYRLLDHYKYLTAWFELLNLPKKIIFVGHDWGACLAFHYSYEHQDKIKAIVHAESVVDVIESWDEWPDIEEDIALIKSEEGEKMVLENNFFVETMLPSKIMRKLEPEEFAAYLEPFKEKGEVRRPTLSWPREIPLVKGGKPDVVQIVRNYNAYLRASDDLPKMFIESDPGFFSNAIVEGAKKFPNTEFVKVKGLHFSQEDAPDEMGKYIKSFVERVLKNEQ
Experimental: as §1
The cell lysate was thawed at room temperature. Stock solutions of the isoflavonoids and positive controls were dissolved in DMSO and 10-fold serially diluted in the cell lysate to the final concentration with 1% DMSO. […] Then, 30 µL Luciferase Assay Reagent II (contained in the Dual-Luciferase Reporter Assay System; Promega, Madison, WI, USA) was added to each well, and the FLuc luminescence was measured using a microplate reader (Synergy 4 hybrid; BioTek, Winooski, VT, USA). The addition of 30 µL of Stop & Glo Reagent (contained in the Dual-Luciferase Reporter Assay System) followed, and the RLuc luminescence was recorded using the microplate reader (Synergy 4 hybrid; BioTek, Winooski, VT, USA). […]

[3] = IC50 firefly luciferase inhibition
[4] = read-out: IC50 firefly luciferase inhibition

For Oc1ccc(/C=C/c2cc(O)cc(O)c2)cc1 [Resveratrol, resveratrol], the IC50 (isolated FLuc) is listed as 2 µM.

Work on COc1cc2c(=O)c(-c3ccc(O)cc3)coc2cc1O [Glycitein] yielded an IC50 [1, 3] of 26.4 µM and an inhibition at 10 µM [1] of 30.1%.

For COc1ccc(-c2coc3cc(O)ccc3c2=O)cc1 [Formononetin, formononetin], the IC50 [1, 4] was 3.88 µM and the inhibition at 1 µM [1] was 32.4%.

For COc1cc(O)c2c(=O)c(-c3ccc(O)cc3)coc2c1 [Prunetin, prunetin], the IC50 [1, 3] was 16.3 µM and the inhibition at 10 µM [1] was 40.7%.

In the case of O=c1c(-c2ccc(O)cc2)coc2cc(O)cc(O)c12 [Genistein, genistein], the IC50 [1, 3] is reported as 36.9 µM and the inhibition at 100 µM [1] is reported as 71.2%.

In the case of O=S(=O)(NCCNC/C=C/c1ccc(Br)cc1)c1cccc2cnccc12 [H-89], the IC50 (RLuc) is given as 10 µM and the IC50 [2] is given as 338 µM.

In the case of O=c1c(-c2ccc(O)cc2)coc2cc(O[C@@H]3O[C@H](CO)[C@@H](O)[C@H](O)[C@H]3O)ccc12 [Daidzin, daidzin], the “FLuc inhibition (result in words)” value [1] is reported as “inactive; also recorded: did not show inhibition of FLuc at all”.

O=c1c(-c2ccc(O)cc2)coc2cc(O)ccc12 [Daidzein] gave an IC50 [1, 3] of 51.4 µM and an inhibition at 100 µM [1] of 60.9%.

In the case of COc1ccc(-c2coc3cc(O)ccc3c2=O)cc1O [Calycosin], the IC50 [1, 3] is reported as 4.96 µM and the inhibition at 10 µM [1] is reported as 66.2%.

In the case of COc1cc2c(=O)c(-c3ccc(O)cc3)coc2cc1O[C@@H]1O[C@H](CO)[C@@H](O)[C@H](O)[C@H]1O [Glycitin, glycitin], the “FLuc inhibition (result in words)” value [1] is reported as “inactive; also recorded: did not show inhibition of FLuc at all”.

In the case of O=c1c(-c2ccc(O)cc2)coc2cc(O[C@@H]3O[C@H](CO)[C@@H](O)[C@H](O)[C@H]3O)cc(O)c12 [Genistin, genistin], the “FLuc inhibition (result in words)” value [1] is reported as “inactive” and the “FLuc inhibition (result in words)” value ([1]; listed as genistin) is reported as “did not show inhibition of FLuc at all”.

For Oc1ccc([C@H]2COc3cc(O)ccc3C2)cc1 [S-Equol, S-equol], the “FLuc inhibition (result in words)” value [1] was “inactive; also recorded: did not show inhibition of FLuc at all”.

For COc1ccc(-c2coc3cc(O)cc(O)c3c2=O)cc1 [Biochanin A, biochanin A], the IC50 [1, 4] was 0.636 µM and 0.64 µM and the inhibition at 1 µM [1] was 62.4%.
